Experimental data from US7468392B1, “Anti-fatigue cyclohexenone compounds from antrodia camphorata” (Golden Biotechnology Corporation, priority 2007, dated 2008).

Tests used:
Type in all cases: in vivo, human
healthy male volunteers [1] = test: Ammonia levels in blood before/after exhaustive exercise at 80% VO2max; conditions: for blood ammonia levels: plasma, Mean, n = 15; for effect of supplementation after exercise on metabolism of blood ammonia: exhaustive exercise at 80% VO2max, versus placebo
Procedure: (§1) The present invention is based on supplementing cyclohexenone of Antrodia camphorata or placebo with no cyclohexenone of Antrodia camphorata to the subjects. The subjects were tested for the anti-fatigue function after supplementing cyclohexenone of Antrodia camphorata by measuring the amounts of fatigue indexes such as CPK, lactic acid, glucose, ammonia and free fatty acid before and after exhaustive exercise load at 80% VO2max.
(§2) Subjects were randomized to receive either cyclohexenone of Antrodia camphorata or placebo. Placebo contained substances such as cornstarch but no cyclohexenone of Antrodia camphorata. A double-blind, cross-over method was performed in this study where neither the evaluator nor the subject knew the content of the test substances. Based on rules of order balance, each subject have to receive the following tests: relaxing and receiving placebo (PR), exercising and receiving placebo (PE), relaxing and receiving cyclohexenone of Antrodia camphorata (DR), and exercising and receiving cyclohexenone of Antrodia camphorata (DE). Each test was carried out for one week, and took one week off before the next test until all 4 tests were performed in each subject. The exercise was performed on a treadmill with the load intensity at the measured 80% VO2max (7.61±1.87) until exhausted. Subjects received cyclohexenone of Antrodia camphorata or placebo after exercise in the amount of 0.2 g/kg body weight per day. […] Blood was collected in anticoagulant (such as EDTA) containing collection tubes, and was centrifuged at 3000 g. for 10 min to collect the plasma. The fatigue indexes such as CPK, lactic acid, glucose, ammonia and free fatty acid were analyzed accordingly. The physiological and biochemical changes before and after exercise with different supplements were compared and shown as values of mean and standard error (Mean±SEM). […] The details for the biochemical analysis and results are described below:
The measurement of blood ammonia was performed with an automated blood analyzer Johnson & Johnson DT-60II based on the spectrophotometric method. Bromphenol blue was added into a defined amount of plasma to generate blue products. The reaction is shown below:
The absorbance at 605 nm was measured to obtain the concentration of blood ammonia.

healthy male volunteers [2] = test: Lactate levels in blood before/after exhaustive exercise at 80% VO2max; conditions: for blood lactate levels: plasma, Mean, n = 15; for effect of supplementation after exercise on metabolism of blood lactate: exhaustive exercise at 80% VO2max, versus placebo
Procedure: as §1, §2
The measurement of blood lactate was performed with an automated blood analyzer using dry chemistry method (Johnson & Johnson DT-60II) based on enzyme function and spectrophotometric theory. Lactate oxidase was added into a defined amount of plasma for reaction, followed by addition of 4-aminoantipyrine and 1,7-dihydroxynaphthalene. A red product was formed through activities of peroxidase. The reactions are shown below:
The absorbance at 540 nm was measured to obtain the concentration of blood lactate.

healthy male volunteers [3] = test: Blood glucose before meals, before/after exhaustive exercise at 80% VO2max; conditions: Relax (DR), plasma, Mean, n = 15
Procedure: as §1, §2
The measurement of blood glucose was performed with an automated blood analyzer Johnson & Johnson DT-600 II based on enzyme function and spectrophotometric method. Glucose oxidase was added into a defined amount of plasma for reaction, followed by addition of 4-aminoantipyrine and 1,7-dihydroxyphthalene. A red product was formed through function of peroxidase. The reactions are shown below:
The absorbance at 555 nm was measured to obtain the concentration of blood glucose.

[4] = Relax (DR), Post-exercise 0.5 h
[5] = Relax (DR), Post-exercise 120 h
[6] = Relax (DR), Post-exercise 168 h
[7] = exercise (DE), Post-exercise 0 h
[8] = exercise (DE), Post-exercise 0.5 h
[9] = exercise (DE), Post-exercise 1 h
[10] = exercise (DE), Post-exercise 2 h
[11] = exercise (DE), Post-exercise 24 h
[12] = exercise (DE), Post-exercise 48 h
[13] = exercise (DE), Post-exercise 72 h
[14] = exercise (DE), Post-exercise 120 h
[15] = exercise (DE), Post-exercise 168 h
[16] = exercise (DE), Prior to exercise
[17] = listed as cyclohexenone from Antrodia camphorata

In the case of `COC1=C(OC)C(O)C(C/C=C(\C)CC/C=C(\C)CCC=C(C)C)C(C)C1=O` (centres unmarked) [cyclohexenone, 4-hydroxy-2,3-dimethoxy-6-methyl-5(3,7,11-trimethyl-dodeca-2,6,10-trienyl)-cyclohex-2-enone], the “ammonia levels in DE group versus those before exercise” value (healthy male volunteers [1]; 24 h post exercise) is reported as “significantly lower”, the blood ammonia levels (healthy male volunteers [1]; Relax (DR), Post-exercise 0 h) is reported as 55.60 µg/dL and the blood ammonia levels (healthy male volunteers [1]; [4]) is reported as 52.53 µg/dL. It also gave a blood ammonia levels (healthy male volunteers [1]; Relax (DR), Post-exercise 1 h) of 57.47 µg/dL, a blood ammonia levels (healthy male volunteers [1]; Relax (DR), Post-exercise 2 h) of 54.07 µg/dL and a blood ammonia levels (healthy male volunteers [1]; Relax (DR), Post-exercise 24 h) of 30.33 µg/dL. The blood ammonia levels (healthy male volunteers [1]; Relax (DR), Post-exercise 48 h) was 26.86 µg/dL, the blood ammonia levels (healthy male volunteers [1]; Relax (DR), Post-exercise 72 h) was 25.20 µg/dL and the blood ammonia levels (healthy male volunteers [1]; [5]) was 27.80 µg/dL. For the same molecule, the blood ammonia levels (healthy male volunteers [1]; [6]) was 28.57 µg/dL, the blood ammonia levels (healthy male volunteers [1]; Relax (DR), Prior to exercise) was 39.20 µg/dL and the blood ammonia levels (healthy male volunteers [1]; [7]) was 118.07 µg/dL. For the same molecule, the blood ammonia levels (healthy male volunteers [1]; [8]) was 57.64 µg/dL, the blood ammonia levels (healthy male volunteers [1]; [9]) was 44.86 µg/dL and the blood ammonia levels (healthy male volunteers [1]; [10]) was 37.53 µg/dL. For the same molecule, the blood ammonia levels (healthy male volunteers [1]; [11]) was 27.93 µg/dL, the blood ammonia levels (healthy male volunteers [1]; [12]) was 20.93 µg/dL and the blood ammonia levels (healthy male volunteers [1]; [13]) was 30.07 µg/dL. The blood ammonia levels (healthy male volunteers [1]; [14]) was 23.21 µg/dL, the blood ammonia levels (healthy male volunteers [1]; [15]) was 24.86 µg/dL and the blood ammonia levels (healthy male volunteers [1]; [16]) was 45.86 µg/dL. For the same molecule, the “effect of supplementation after exercise on metabolism of blood ammonia” value (healthy male volunteers [1]; [17]) was “facilitates the metabolism of blood ammonia”, the “effect of supplementation after exercise on metabolism of blood ammonia” value (healthy male volunteers [1]; listed as cyclohexenone from Antrodia camphorea) was “beneficial to the recovery of creatine phosphate kinase and blood ammonia” and the “blood ammonia level, exercise group versus relax group receiving cyclohexenone” value (healthy male volunteers [1]; post exercise at 2 h, p<0.05) was “significantly superior”. The blood lactate levels (healthy male volunteers [2]; Relax (DR), Post-exercise 0 h) was 2.39 mmol/L, the blood lactate levels (healthy male volunteers [2]; [4]) was 2.25 mmol/L and the blood lactate levels (healthy male volunteers [2]; Relax (DR), Post-exercise 1 h) was 3.00 mmol/L. It also gave a blood lactate levels (healthy male volunteers [2]; Relax (DR), Post-exercise 2 h) of 2.52 mmol/L, a blood lactate levels (healthy male volunteers [2]; Relax (DR), Post-exercise 24 h) of 2.26 mmol/L and a blood lactate levels (healthy male volunteers [2]; Relax (DR), Post-exercise 48 h) of 2.71 mmol/L. It also gave a blood lactate levels (healthy male volunteers [2]; Relax (DR), Post-exercise 72 h) of 2.22 mmol/L, a blood lactate levels (healthy male volunteers [2]; [5]) of 2.41 mmol/L and a blood lactate levels (healthy male volunteers [2]; [6]) of 2.41 mmol/L. It also gave a blood lactate levels (healthy male volunteers [2]; Relax (DR), Prior to exercise) of 2.54 mmol/L, a blood lactate levels (healthy male volunteers [2]; [7]) of 7.07 mmol/L and a blood lactate levels (healthy male volunteers [2]; [8]) of 3.20 mmol/L. It also gave a blood lactate levels (healthy male volunteers [2]; [9]) of 2.96 mmol/L, a blood lactate levels (healthy male volunteers [2]; [10]) of 2.9 mmol/L and a blood lactate levels (healthy male volunteers [2]; [11]) of 2.39 mmol/L. It also gave a blood lactate levels (healthy male volunteers [2]; [12]) of 2.77 mmol/L, a blood lactate levels (healthy male volunteers [2]; [13]) of 2.18 mmol/L and a blood lactate levels (healthy male volunteers [2]; [14]) of 2.53 mmol/L. For the same molecule, the blood lactate levels (healthy male volunteers [2]; [15]) was 2.23 mmol/L, the blood lactate levels (healthy male volunteers [2]; [16]) was 2.50 mmol/L and the “effect of supplementation after exercise on metabolism of blood lactate” value (healthy male volunteers [2]; [17]) was “did not affect the metabolism of blood lactate”. The “effect of supplementation after exercise on metabolism of blood lactate” value (healthy male volunteers [2]; listed as cyclohexenone of Antrodia camphorata) was “no significant difference”, the blood glucose levels (healthy male volunteers [3]; Post-exercise 0 h) was 91.93 mg/dL and the blood glucose levels (healthy male volunteers [3]; Post-exercise 0.5 h) was 93.33 mg/dL. The blood glucose levels (healthy male volunteers [3]; Post-exercise 1 h) was 95.53 mg/dL, the blood glucose levels (healthy male volunteers [3]; Post-exercise 2 h) was 103.20 mg/dL and the blood glucose levels (healthy male volunteers [3]; Post-exercise 24 h) was 90.00 mg/dL. It also gave a blood glucose levels (healthy male volunteers [3]; Post-exercise 48 h) of 90.40 mg/dL, a blood glucose levels (healthy male volunteers [3]; Post-exercise 72 h) of 93.40 mg/dL and a blood glucose levels (healthy male volunteers [3]; Post-exercise 120 h) of 94.00 mg/dL. For the same molecule, the blood glucose levels (healthy male volunteers [3]; Post-exercise 168 h) was 92.20 mg/dL and the blood glucose levels (healthy male volunteers [3]; Prior to exercise) was 91.73 mg/dL.
